Measurements: ChEMBL document CHEMBL2413072, “Synthesis and in vitro anticancer studies of novel C-2 arylidene congeners of lantadenes” (2013)

Columns and labels:
Type in all cases: functional
[1] = system: HCT-15; assay: Growth inhibition of human HCT15 cells assessed as cell growth at 10^-6 M by sulforhodamine B assay; conditions: read-out: Activity
[2] = system: IGROV-1; assay: Growth inhibition of human IGROV1 cells by sulforhodamine B assay
[3] = system: SF-295; assay: Growth inhibition of human SF295 cells assessed as cell growth at 10^-6 M by sulforhodamine B assay; conditions: read-out: Activity
[4] = system: NCI-H226; assay: Growth inhibition of human NCI-H226 cells assessed as cell growth at 10^-7 M by sulforhodamine B assay; conditions: read-out: Activity
[5] = system: 786-0; assay: Growth inhibition of human 786-0 cells assessed as cell growth at 10^-8 M by sulforhodamine B assay; conditions: read-out: Activity
[6] = system: Malme-3M; assay: Growth inhibition of human MALME-3M cells assessed as cell growth at 10^-7 M by sulforhodamine B assay; conditions: read-out: Activity
[7] = system: UO-31; assay: Growth inhibition of human UO31 cells assessed as cell growth at 10^-6 M by sulforhodamine B assay; conditions: read-out: Activity
[8] = system: SR; assay: Growth inhibition of human SR cells by sulforhodamine B assay
[9] = system: SF-268; assay: Growth inhibition of human SF268 cells assessed as cell growth at 10^-7 M by sulforhodamine B assay; conditions: read-out: Activity
[10] = system: SK-OV-3; assay: Growth inhibition of human SKOV3 cells assessed as cell growth at 10^-7 M by sulforhodamine B assay; conditions: read-out: Activity
[11] = system: OVCAR-5; assay: Growth inhibition of human OVCAR5 cells assessed as cell growth at 10^-8 M by sulforhodamine B assay; conditions: read-out: Activity
[12] = system: UO-31; assay: Growth inhibition of human UO31 cells assessed as cell growth at 10^-8 M by sulforhodamine B assay; conditions: read-out: Activity
[13] = system: PC-3; assay: Growth inhibition of human PC3 cells assessed as cell growth at 10^-7 M by sulforhodamine B assay; conditions: read-out: Activity
[14] = system: MDA-MB-231; assay: Growth inhibition of human MDA-MB-231 cells assessed as cell growth at 10^-8 M by sulforhodamine B assay; conditions: read-out: Activity
[15] = Growth inhibition of human NCI-ADR-RES cells assessed as cell growth at 10^-4 M by sulforhodamine B assay; conditions: read-out: Activity
[16] = system: U-251; assay: Growth inhibition of human U251 cells by sulforhodamine B assay
[17] = system: K562; assay: Growth inhibition of human K562 cells assessed as cell growth at 10^-7 M by sulforhodamine B assay; conditions: read-out: Activity
[18] = system: PC-3; assay: Growth inhibition of human PC3 cells by sulforhodamine B assay
[19] = system: K562; assay: Growth inhibition of human K562 cells assessed as cell growth at 10^-6 M by sulforhodamine B assay; conditions: read-out: Activity
[20] = Growth inhibition of human HCC2998 cells assessed as cell growth at 10^-8 M by sulforhodamine B assay; conditions: HCC 2998, read-out: Activity
[21] = system: SF-539; assay: Growth inhibition of human SF539 cells assessed as cell growth at 10^-7 M by sulforhodamine B assay; conditions: read-out: Activity
[22] = system: A498; assay: Growth inhibition of human A498 cells assessed as cell growth at 10^-4 M by sulforhodamine B assay; conditions: read-out: Activity
[23] = Growth inhibition of human NCI-ADR-RES cells assessed as cell growth at 10^-8 M by sulforhodamine B assay; conditions: read-out: Activity
[24] = system: MDA-MB-468; assay: Growth inhibition of human MDA-MB-468 cells assessed as cell growth at 10^-8 M by sulforhodamine B assay; conditions: read-out: Activity
[25] = system: MOLT-4; assay: Growth inhibition of human MOLT4 cells assessed as cell growth at 10^-7 M by sulforhodamine B assay; conditions: read-out: Activity
[26] = system: OVCAR-8; assay: Growth inhibition of human OVCAR8 cells assessed as cell growth at 10^-4 M by sulforhodamine B assay; conditions: read-out: Activity
[27] = system: U-251; assay: Growth inhibition of human U251 cells assessed as cell growth at 10^-6 M by sulforhodamine B assay; conditions: read-out: Activity
[28] = system: OVCAR-3; assay: Growth inhibition of human OVCAR3 cells assessed as cell growth at 10^-4 M by sulforhodamine B assay; conditions: read-out: Activity
[29] = system: HOP-92; assay: Growth inhibition of human HOP92 cells assessed as cell growth at 10^-6 M by sulforhodamine B assay; conditions: read-out: Activity
[30] = system: SW-620; assay: Growth inhibition of human SW620 cells assessed as cell growth at 10^-6 M by sulforhodamine B assay; conditions: read-out: Activity
[31] = system: NCI-H522; assay: Growth inhibition of human NCI-H522 cells assessed as cell growth at 10^-6 M by sulforhodamine B assay; conditions: read-out: Activity
[32] = system: NCI-H322M; assay: Growth inhibition of human NCI-H322M cells assessed as cell growth at 10^-7 M by sulforhodamine B assay; conditions: read-out: Activity
[33] = system: RXF 393; assay: Growth inhibition of human RXF393 cells assessed as cell growth at 10^-7 M by sulforhodamine B assay; conditions: read-out: Activity
[34] = system: 786-0; assay: Growth inhibition of human 786-0 cells assessed as cell growth at 10^-6 M by sulforhodamine B assay; conditions: read-out: Activity
[35] = system: MCF7; assay: Growth inhibition of human MCF7 cells assessed as cell growth at 10^-6 M by sulforhodamine B assay; conditions: read-out: Activity
[36] = system: HCT-116; assay: Growth inhibition of human HCT116 cells assessed as cell growth at 10^-8 M by sulforhodamine B assay; conditions: read-out: Activity
[37] = system: DU-145; assay: Growth inhibition of human DU145 cells assessed as cell growth at 10^-6 M by sulforhodamine B assay; conditions: read-out: Activity
[38] = system: NCI-H322M; assay: Growth inhibition of human NCI-H322M cells assessed as cell growth at 10^-6 M by sulforhodamine B assay; conditions: read-out: Activity
[39] = system: NCI-H522; assay: Growth inhibition of human NCI-H522 cells assessed as cell growth at 10^-8 M by sulforhodamine B assay; conditions: read-out: Activity
[40] = system: T47D; assay: Growth inhibition of human T47D cells assessed as cell growth at 10^-7 M by sulforhodamine B assay; conditions: read-out: Activity
[41] = system: 786-0; assay: Growth inhibition of human 786-0 cells by sulforhodamine B assay
[42] = system: MDA-MB-231; assay: Growth inhibition of human MDA-MB-231 cells by sulforhodamine B assay
[43] = read-out: LC50 (the source's name)
[44] = read-out: pLC50 (the source's name) (converted)

With `C/C=C(/C)C(=O)O[C@@H]1CC(C)(C)C[C@H]2C3=CC[C@@H]4[C@@]5(C)CCC(=O)C(C)(C)[C@@H]5CC[C@@]4(C)[C@]3(C)CC[C@@]12C(=O)O` [LANTADENE A] the growth at 1 µM [1] was 87%, the GI50 ([2]; read-out: GI50) was 6.75 µM and the CC50 [2, 43] was over 100 µM. It also gave a TGI ([2]; read-out: TGI) of over 100 µM, a GI50 ([2]; read-out: pGI50 (converted)) of 6.76 µM and a CC50 [2, 44] of over 100 µM. For the same compound, the TGI ([2]; read-out: pTGI (converted)) was over 100 µM, the growth at 1 µM [3] was 88% and the growth at 0.1 µM [4] was 81%. It also gave a growth at 0.01 µM [5] of 95%, a growth at 0.1 µM [6] of 96% and a growth at 1 µM [7] of 87%. For the same compound, the GI50 ([8]; read-out: GI50) was 3 µM, the CC50 [8, 43] was over 100 µM and the TGI ([8]; read-out: TGI) was over 100 µM. It also gave a GI50 ([8]; read-out: pGI50 (converted)) of 3.02 µM, a CC50 [8, 44] of over 100 µM and a TGI ([8]; read-out: pTGI (converted)) of over 100 µM. For the same compound, the growth at 0.1 µM [9] was 101%, the growth at 0.1 µM [10] was 114% and the growth at 0.01 µM [11] was 101%. For the same compound, the growth at 0.01 µM [12] was 96%, the growth at 0.1 µM [13] was 83% and the growth at 0.01 µM [14] was 99%. For the same compound, the growth at 100 µM [15] was 18%, the GI50 ([16]; read-out: GI50) was 3.99 µM and the CC50 [16, 43] was over 100 µM. It also gave a TGI ([16]; read-out: TGI) of over 100 µM, a GI50 ([16]; read-out: pGI50 (converted)) of 3.98 µM and a CC50 [16, 44] of over 100 µM. It also gave a TGI ([16]; read-out: pTGI (converted)) of over 100 µM, a growth at 0.1 µM [17] of 100% and a GI50 ([18]; read-out: GI50) of 2530 nM. The CC50 [18, 43] was over 100 µM, the TGI ([18]; read-out: TGI) was over 100 µM and the GI50 ([18]; read-out: pGI50 (converted)) was 2510 nM. It also gave a CC50 [18, 44] of over 100 µM, a TGI ([18]; read-out: pTGI (converted)) of over 100 µM and a growth at 1 µM [19] of 87%. For the same compound, the growth at 0.01 µM [20] was 106%, the growth at 0.1 µM [21] was 103% and the growth at 100 µM [22] was -20%. For the same compound, the growth at 0.01 µM [23] was 104%, the growth at 0.01 µM [24] was 95% and the growth at 0.1 µM [25] was 102%. It also gave a growth at 100 µM [26] of 24%, a growth at 1 µM [27] of 90% and a growth at 100 µM [28] of 23%. For the same compound, the growth at 1 µM [29] was 56%, the growth at 1 µM [30] was 90% and the growth at 1 µM [31] was 94%. The growth at 0.1 µM [32] was 97%, the growth at 0.1 µM [33] was 91% and the growth at 1 µM [34] was 93%. It also gave a growth at 1 µM [35] of 87%, a growth at 0.01 µM [36] of 94% and a growth at 1 µM [37] of 102%. It also gave a growth at 1 µM [38] of 90%, a growth at 0.01 µM [39] of 109% and a growth at 0.1 µM [40] of 99%. It also gave a GI50 ([41]; read-out: GI50) of 3.47 µM, a CC50 [41, 43] of over 100 µM and a TGI ([41]; read-out: TGI) of over 100 µM. It also gave a GI50 ([41]; read-out: pGI50 (converted)) of 3.47 µM, a CC50 [41, 44] of over 100 µM and a TGI ([41]; read-out: pTGI (converted)) of over 100 µM. The GI50 ([42]; read-out: GI50) was 4.53 µM, the CC50 [42, 43] was over 100 µM and the TGI ([42]; read-out: TGI) was 33.4 µM. It also gave a GI50 ([42]; read-out: pGI50 (converted)) of 4.57 µM, a CC50 [42, 44] of over 100 µM and a TGI ([42]; read-out: pTGI (converted)) of 33.1 µM.
